Measurements from patent US20080255207A1, “5-Thioxo-1,5-Dihydro-2H-Pyrrol-2-One Derivatives As Liver X Receptor Modulators” (ASTRAZENECA AB, priority 2005, published 2008).

Columns and labels:
human LXRbeta = target: T1, human LXRbeta (Homo sapiens, UniProt P55055); test: Transactivation (reporter gene) assay, GAL4-LXRbeta LBD luciferase in U2/OS cells; format: cell-based; details: U2/OS osteosarcoma cells, 48 h; T0901317 at 1 μM as 100% control
T1 construct: LXRbeta (amino acid 216-461); expressed in transfected cells; host or cells: U2/OS osteosarcoma cells, electroporated with pSGGAL-LXRbeta
T1 sequence (P55055 215-460 limits assumed): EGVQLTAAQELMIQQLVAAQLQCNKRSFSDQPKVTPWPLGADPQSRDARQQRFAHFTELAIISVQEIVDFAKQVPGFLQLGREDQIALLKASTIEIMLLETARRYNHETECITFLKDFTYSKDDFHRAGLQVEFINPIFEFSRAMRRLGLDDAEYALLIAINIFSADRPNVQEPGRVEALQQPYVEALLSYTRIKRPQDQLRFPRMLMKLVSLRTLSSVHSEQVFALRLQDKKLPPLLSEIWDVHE
Protocol: (§1) Expression vectors were prepared by inserting the ligand binding domain cDNA (complementary DNA) of human LXRalpha (amino acid 205447) and LXRbeta (amino acid 216-461) in frame with, 3′ to the yeast GAL4 transcription factor DNA binding domain and the nuclear localization signal from the T-antigen of Polyoma Virus in the eucaryotic expression vector pSG5 (Stratagene). The resulting expression vectors pSGGAL-LXRalpha and pSGGAL-LXRbeta were used in cotransfection experiments together with the pGL3 luciferase reporter plasmid containing a minirnal SV40 promoter and five copies of the UAS GAL4 recognition site. 2.5 μg pSGGAL-LXRalpha or beta were mixed with 25 μg pGL3 5×UAS and 22.5 μg pBluscript in 0.95 mL ice cold PBS containing approx. 4-9 milj. U2/OS osteosarcoma cells. After a five minute incubation on ice the cell/DNA mixture was electroporated in 0.4 cm cuvettes at 960 μF, 230 V using a BioRad electroporator and diluted to 0.32 milj cells/mL in complete DMEM (Dulbecco's Modified Eagle Medium) medium (Gibco 31966-021). Cells from at least two electroporations were pooled in order to avoid variations between different electroportations. […] Luciferase activity was measured using the “Luminescence 384 protocol” in the Wallac Victor reader after 15 min. incubation at room temperature. […]

human LXRalpha = target: T2, human LXRalpha (Homo sapiens, UniProt Q13133); test: Transactivation (reporter gene) assay, GAL4-LXRalpha LBD luciferase in U2/OS cells; format: cell-based; details: U2/OS osteosarcoma cells, 48 h; T0901317 at 1 μM as 100% control
T2 construct: human LXRalpha (amino acid 205-447); expressed in transfected cells; host or cells: U2/OS osteosarcoma cells, electroporated with pSGGAL-LXRalpha
T2 sequence (Q13133 205-447): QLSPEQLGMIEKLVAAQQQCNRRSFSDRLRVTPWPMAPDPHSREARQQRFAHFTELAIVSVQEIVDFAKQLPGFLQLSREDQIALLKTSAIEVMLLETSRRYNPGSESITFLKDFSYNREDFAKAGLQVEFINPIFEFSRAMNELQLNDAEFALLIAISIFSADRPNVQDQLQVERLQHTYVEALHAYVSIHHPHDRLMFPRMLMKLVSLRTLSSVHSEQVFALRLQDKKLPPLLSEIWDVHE
Protocol: as §1

SMILES: Nc1ccc(CN2C(=O)C(Nc3ccc(OC(F)F)cc3)=C(c3ccccc3)C2=S)cn1 [Example 1, 1-[(6-aminopyridin-3-yl)methyl]-3-{[4-(difluoromethoxy)phenyl]amino}-4-phenyl-5-thioxo-1,5-dihydro-2H-pyrrol-2-one]
- EC50 (human LXRbeta): 320 nM
- EC50 (human LXRalpha): 280 nM
